Experimental findings from patent US20190263867A1, “TAU PEPTIDES, METHODS OF MAKING, AND METHODS OF USING” (priority 2018, published 2019) are described below.

In data set [1] the test system is rat hippocampal neurons expressing GFP-tagged wild-type human tau. Nature of the data set: Mislocalization of tau to dendritic spines caused by Aβ oligomers. The format is cell-based. To be noted: Aβ oligomers 0.1 μM with AP peptide 1 μM, 3 days. The procedure: FIG. 11A Cultured 21 days in vitro (DIV) rat hippocampal neurons expressing DsRed (left panels) and GFP-tagged wild-type human tau (middle panels) were untreated (top panels), treated with Aβ oligomers alone (0.1 μM) (middle panels), or treated with Aβ oligomers (0.1 μM) with AP peptide (1 μM) (bottom panels) for 3 days.

For data set [2], the system named is rat hippocampal neurons expressing GFP-WT-tau. The experiment in a line: Tau missorting to dendritic spines in mechanically injured (stretched) neurons, TBI model. Conditions: 10 stretches, 2% strain; AP peptide 1 μM. The format is cell-based. How it is done: FIG. 12A. Representative live images of cultured rat hippocampal neurons that had been co-transfected with plasmids of DsRed (left lane; a red fluorescence protein to label dendritic spines) and green fluorescence protein (GFP)-tagged wild-type tau (GFP-WT-tau; middle lane) with overlay images on the right lane 2 days after the delivery of a mechanical protocol. The neurons were cultured on a plastic membrane and were stretched by a computer-controlled mechanical device, as described in Example 2 (10 stretches; 2% mechanical strain; 1 second interval between stretches) in 21 days in vitro (DIV). Arrows denote dendritic spines that contain tau and triangles denote dendritic spines devoid of tau. FIG. 12B. […] FIG. 12C. […] ANOVA was used in FIG. 12B and FIG. 12C; *** indicates p<0.001.
In a tauopathy model for traumatic brain injuries (TBI) based on the model of Hemphill et al. 2011 PLoS One. 6(7):e2289), mechanical injuries to neurons induce tau missorting to dendritic spines (FIG. 12). The methods of Hemphill et al. were modified such that plasmids encoding GFP-tagged tau were introduced into neurons, allowing detection of tau abnormalities as well as tau-mediated synaptic deficits. Briefly, neurons were plated onto medical grade silicone elastomer membranes (0.010 inch NRV, Specialty Manufacturing, Inc., Saginaw, Mich.) and glued inside a reducing well. […]

Data set [3] deals with neurons expressing GFP-tagged P301L-tau. Nature of the data set: Missorting of tau to dendritic spines in neurons expressing P301L mutant tau, peptide treatment. Conditions: for proportion of dendritic spines that contain tau (tau mis-sorting caused by P301L mutation): 21 DIV neurons, GFP-tagged P301L-tau, peptide 1 μM for 3 days. The format is cell-based, rat. The procedure: FIG. 10A-FIG. 10B show missorting of tau to dendritic spines caused by P301L mutation is blocked by Peptide 1 and Peptide 2 but not Peptide 3. FIG. 10A 21 days in vitro (DIV) neurons expressing DsRed (left panels) and GFP-tagged P301L-tau (middle panels) were treated with AP peptide (Peptide 2; 1 μM) for 3 days (top panels: untreated; bottom panels: treated).
Transfected cells were continually bathed in neurobasal media and were passively perfused with medical-grade 95% O2-5% CO2. Micrographs were taken on a Nikon epifluorescent inverted microscope with 60× oil lens with a computerized focus motor at DIV 21-23. All digital images were processed using METAMORPH Imaging System (Universal Imaging Corporation, Molecular Devices, San Jose, Calif.). Images were taken as 15 plane stacks at 0.5 micron increments, processed by deconvolution to the nearest planes, and averaged against other stacked images. A dendritic spine was defined as having an expanded head diameter, greater than 50% larger in diameter than the neck. The number of spines per neuron were counted and normalized to a […] length of dendritic shaft. […]

Data set [4] has as its system cultured rat hippocampal neurons expressing A53T αS. Nature of the data set: AMPA receptor mEPSCs in neurons transfected with A53T αS. The format is cell-based. Conditions: GSK3β inhibition with CHIR.
Data set [5] concerns primary cultured rat hippocampal neurons. The experiment in a line: Cell death of cultured neurons under kinase inhibitor treatment. It is filed as cell-based. To be noted: Sprague-Dawley, 24 h. How it is done:
Roscovitine and CHIR99021 were purchased from Sigma-Aldrich (St. Louis, Mo.) and were diluted in DMSO to four 1000× concentration aliquots for ultimate concentrations in neurobasal medium of […]. Primary cultured rat hippocampal neurons transfected with dsRed and eGFP-P301L-tau were treated with one of four 1000× aliquots or DMSO vehicle on DIV 20-22. Treated cells were incubated for 24 hours prior to imaging on DIV 21-23. Cell death was visually assessed under differential interference contrast (DIC) for decreased cell density, lost soma adhesion, gross qualitative neurite retraction. If evidence of cell death was observed under DIC, cells were fixed in 4% sucrose and 4% paraformaldehyde in PBS and stained with 300 nM DAPI in PBS. DAPI stained cells were analyzed under fluorescent microscopy for nuclear pyknosis and karyorrhexis; dsRed expressing cells were analyzed for spine loss. If no cell death was evident under DIC, live fluorescent images were acquired and analyzed as above.

Data set [6] relates to low density hippocampal neurons from G2-3 mice. Nature of the data set: GluA1 surface expression in dendritic spines of G2-3 neurons. The format is cell-based, mouse. The text has this:
FIG. 21A. Photomicrographs of neurons from G2-3 mice and their TgNg littermates without (top two panels) and with treatment of CHIR-99021 (bottom two panels). As previously described (Liao et al. 1999 Nature Neuroscience 2(1): 37-43), live neurons were stained for N-GluA1 antibodies (green), fixed, permeablized, and stained for PSD-95 (red). Arrows indicate tightly clustered surface N-GluA1 colocalized with PSD-95, whereas weak, non-specific N-GluR1 immunoreactivity appeared along the dendritic shafts as diffuse staining rather than distinct clusters in G2-3 neurons (arrow heads). The diffuse staining is likely due to the presence of extrasynaptic AMPA receptors (Newpher and Ehlers 2008 Neuron 58: 472-97). […] Scale bar: […]. FIG. 21B. GluA1 surface fluorescence in PSD-95 immunoreactive spines was normalized to dendritic fluorescence. […] For all n=8; data are expressed as mean±s.e.m. […]
Cultured neurons were fixed and permeabilized successively with 4% paraformaldehyde, 100% methanol, and 0.2% Triton X-100 (Lin et al. 2009 Neuropsychopharmacology 34(9):2097-111). […] In FIG. 4A-FIG. 4B, the number of synaptophysin clusters and their colocalization with boutons of neurons expressing eGFP or eGFP-labeled αS were automatically counted using ImageJ software (available on the world wide web at imagej.nih.gov/ij/). […] DAPI stained nuclei were manually counted from wide-field photomicrographs. […]

Data set [7] deals with rat hippocampal neurons expressing P301L mutant eGFP-tau. The experiment in a line: P301L mutant tau mislocalization to dendritic spines, kinase inhibitor treatment. It is filed as cell-based. The text has this: FIG. 5A. […] FIG. 5B. […] FIG. 5C. […] FIG. 5D. […] FIG. 5E.
Data set [8] concerns cultured G2-3 (A53T αS) mouse hippocampal neurons expressing eGFP-WT tau. Nature of the data set: A53T αS-dependent mislocalization of tau to dendritic spines, GSK3β inhibition. The format is cell-based. Conditions: 3 μM, applied at 16 DIV, imaged at 21 DIV.
The mark [9] stands for this setting: 500 nM chir99021 and 500 nM roscovitine in combination.
[10] abbreviates: either drug alone, concentrations up to 5 μM.

Entries after “also recorded” stand apart in the source; their conditions may differ.

For the molecule “H2N-GRKKRRQRRRPQDHGAEIVYKAPVVSGDTAPRHLSNVS ST-OH (H-GRKKRRQRRRPQDHGAEIVYKAPVVSGDTAPRHLSNVSST-OH) [Peptide 2]”, the “proportion of dendritic spines that contain tau, increase caused by Aβ oligomers” value in data set [1] is “blocked”; in data set [1] (listed as AP peptide) it was “block tau mislocalization; also recorded: can block tau missorting to dendritic spines”. Also, the “proportion of dendritic spines containing tau after mechanical stretches” value in data set [2] is given as “blocked tau missorting to dendritic spines”. The figures for the “proportion of dendritic spines that contain tau (tau mis-sorting caused by P301L mutation)” value in data set [3] and in data set [3] (listed as AP peptide) were “block mislocalization of tau” and “blocked tau mis-sorting; also recorded: significantly decreased”, respectively. For the same molecule, the “strength of effect on tau mis-sorting compared with WT peptide” value in data set [3] (neurons expressing P301L mutant tau) is listed as “stronger effect”.
Regarding `Cc1c[nH]c(-c2cnc(NCCNc3ccc(C#N)cn3)nc2-c2ccc(Cl)cc2Cl)n1` [CHIR99021], the “postsynaptic deficits (mEPSC amplitude) caused by A53T αS transfection” value in data set [4] is on record as “completely reverse”. In addition, the “concentration that killed the neurons” value in data set [5] was “above 5 μM”. The “drug concentration at which overt cell death was observed” value in data set [5] is reported as “exceeded 5 M”. Besides, the “surface N-GluA1 synaptic localization (colocalization with PSD-95)” value in data set [6] (listed as CHIR) was “strong colocalization of PSD-95 and N-GluA1 clusters is restored”; in data set [6] (listed as CHIR-99021) it was “restored surface N-GluA1 synaptic localization”. Besides, the “percentage of eGFP-containing spines” value in data set [7] (setting [9]) is “reduced the percentage of eGFP-containing spines to that of wild type eGFP-tau”; in data set [7] (setting [10]), “neither drug alone, at concentrations up to 5 μM, lowered the percentage of eGFP-containing spines to control levels”. For the same molecule, the “increase in dendritic spines containing mislocalized eGFP-tau in G2-3 neurons” value in data set [8] is recorded as “blocked”.
As for “H2N-GRKKRRQRRRPQDHGAEIVYKEPVVSGDTEPRHLSNVS ST-OH (H-GRKKRRQRRRPQDHGAEIVYKEPVVSGDTEPRHLSNVSST-OH) [Peptide 3]”, the “proportion of dendritic spines that contain tau (tau mis-sorting caused by P301L mutation)” value in data set [3] was “did not block”; in data set [3] (listed as EP Peptide), “No decrease”; in data set [3] (listed as EP peptide) it was “did not block tau mis-sorting”.
For the molecule `CC[C@H](CO)Nc1nc(NCc2ccccc2)c2ncn(C(C)C)c2n1` [roscovitine], the “percentage of eGFP-containing spines” value in data set [7] (setting [9]) was “reduced the percentage of eGFP-containing spines to that of wild type eGFP-tau”; in data set [7] (setting [10]), “neither drug alone, at concentrations up to 5 μM, lowered the percentage of eGFP-containing spines to control levels”.
